Source: PubChem BioAssay (NCI)
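A five-concentration, 48-hour dose response in 96-well plates underlies each endpoint, interpolated linearly between surrounding concentrations. GI50: concentration for 50% inhibition of growth. TGI is the concentration that stops growth completely.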

Columns and labels:
Assay in all cases: NCI tumour cell line growth inhibition, 48 h
KM12 colon = system: KM12 colon
HOP-92 NSCLC = system: HOP-92 NSCLC
NCI-H226 lung = system: NCI-H226 lung
UACC-257 melanoma = system: UACC-257 melanoma
M14 melanoma = system: M14 melanoma
EKVX NSCLC = system: EKVX NSCLC
MALME-3M melanoma = system: MALME-3M melanoma
T-47D breast = system: T-47D breast
BT-549 breast = system: BT-549 breast
MDA-MB-231 breast = system: MDA-MB-231 breast

| Compound | TGI (KM12 colon) [µM] | TGI (HOP-92 NSCLC) [µM] | TGI (NCI-H226 lung) [µM] | TGI (UACC-257 melanoma) [µM] | TGI (M14 melanoma) [µM] | TGI (EKVX NSCLC) [µM] | TGI (MALME-3M melanoma) [µM] | GI50 (KM12 colon) [µM] | GI50 (HOP-92 NSCLC) [µM] | GI50 (NCI-H226 lung) [µM] | GI50 (UACC-257 melanoma) [µM] | GI50 (T-47D breast) [µM] | TGI (T-47D breast) [µM] | GI50 (M14 melanoma) [µM] | GI50 (BT-549 breast) [µM] | TGI (BT-549 breast) [µM] | GI50 (EKVX NSCLC) [µM] | GI50 (MALME-3M melanoma) [µM] | TGI (MDA-MB-231 breast) [µM] | GI50 (MDA-MB-231 breast) [µM] |
| --- | --- | --- | --- | --- | --- | --- | --- | --- | --- | --- | --- | --- | --- | --- | --- | --- | --- | --- | --- | --- |
| COc1cc2ccc3c4cc(OC)c(OC(C)C)cc4c[n+](C)c3c2cc1OC | > 100 | > 100 | > 100 | > 100 | > 100 | > 100 | > 100 |  |  |  |  |  |  |  |  |  |  |  |  |  |
| CCCCCC(=C/c1ccccc1)/C=N/N=C(N)N | 2.82 | 3.19 | 5.51 | 2.83 | 3.09 | 19.1 | 3.12 | 1.43 | 1.45 | 2.2 | 1.45 | 1.65 | 3.62 | 1.56 | 1.65 | 3.02 | 4.03 | 1.51 |  |  |
| CCN(CC)/[N+]([O-])=N/OCC(C)O (stereo not drawn) | > 100 | > 100 | > 100 | > 100 | > 100 | > 100 |  |  |  |  |  |  |  |  |  |  |  |  |  |  |
| CNC(=S)N(C1CCCCC1)C1CCCCC1 | > 100 | > 100 | > 100 | > 100 | > 100 | > 100 | > 100 |  |  |  |  |  | > 100 |  |  |  |  |  | > 100 |  |
| Cc1ccccc1C[P+](c1ccccc1)(c1ccccc1)c1ccccc1 | 11 | 3.77 | > 100 | 4.65 |  | > 100 | > 100 | 0.804 | 0.433 | 3.18 | 0.371 | 0.294 | 14.9 |  | 2.7 | 71.7 | 0.873 | 4.72 | > 100 | 2.04 |
| C[C@@]1(O)CCC[C@H]1n1c(=O)c(C(F)F)cc2cnc(NC3CCN(S(C)(=O)=O)CC3)nc21 | > 100 | 6.8 |  | 22.8 | 7.62 | 5.92 | 5.37 | 1.8 | 2.04 |  | 2.31 | 1.29 | > 100 | 1.75 | 1.94 | 9.39 | 1.75 | 1.29 | 7.04 | 1.14 |
| COc1cc(/C=C2\Cc3ccccc3C2=O)cc(OC)c1OC | > 100 | > 100 | > 100 | > 100 | > 100 | > 100 | > 100 |  |  |  |  |  |  |  |  |  |  |  |  |  |
| COc1cc2c(cc1OC)-c1ncc3cc(OC)c(OC)cc3c1C2 | > 50 | > 50 |  | > 50 | > 50 | > 50 |  | > 50 | > 50 |  | > 50 | > 50 | > 50 | > 50 |  |  | > 50 |  | > 50 | > 50 |
| C/C(=N\NS(=O)(=O)c1c(C)cc(C)cc1C)c1ccc[n+]([O-])n1 | > 100 | 22.8 |  | 22.7 | 20.7 | 26 |  |  |  |  |  |  |  |  |  |  |  |  |  |  |
| CC(C)(C)C1CCC(=O)C(C(O)CC2CC(=O)N(c3ccccc3)C(=O)C2)C1 (stereo not drawn) | > 100 | > 100 | > 100 | > 100 | > 100 | > 100 | > 100 |  |  |  |  |  |  |  |  |  |  |  |  |  |
| CC(C)=CCC/C(C)=C/CC/C(C)=C/C1CCC(=O)C1(C)C (stereo not drawn) | 32.7 | 51.7 | 29.4 | 42.7 | 42.5 | 42.4 | 37.5 |  |  |  |  |  |  |  |  |  |  |  |  |  |
| CC(=O)Oc1cc(Cl)c(OC(C)=O)c2c(OC(C)=O)c(C)c(O[Si](C)(C)C(C)(C)C)cc12 | 26.1 | 20 |  | 11.6 | 19.6 | 33.9 |  |  |  |  |  |  |  |  |  |  |  |  |  |  |
| COC(=O)C1=C(O)c2cc3c(cc2[C@H](c2cc(OC)c(OC)c(OC)c2)C1)OCO3 | 54.3 | > 100 | > 100 | 95.1 | > 100 |  | > 100 |  |  |  |  |  |  |  |  |  |  |  |  |  |
| COc1c(Cl)[c]([Hg][O]C(C)=O)c(NCC(C)=O)c(OC)[c]1[Hg][O]C(C)=O | > 100 | 6.8 | 43.1 | 29.9 | 28.6 | 65.2 | 7.89 | 31.7 | 2.28 | 18.7 | 15.4 |  |  | 14.7 |  |  | 27.2 | 2.7 |  |  |
| CCC(=O)Nc1ncnc2ncn(C(=O)CC)c12 | > 100 | > 100 |  | > 100 | > 100 | > 100 | > 100 |  |  |  |  |  | > 100 |  |  | > 100 |  |  | > 100 |  |
| [N-]=[N+]=NC1C2CC3CC(C2)CC1C3 (stereo not drawn) | > 100 | > 100 | > 100 | > 100 | > 100 | > 100 | > 100 |  |  |  |  |  |  |  |  |  |  |  |  |  |
| O=C(Nc1ccc(N2CCNCC2)cn1)c1[nH]ncc1Nc1ncnc2sccc12 | 11.5 | 5.65 | 9.05 | 36.7 | 3.65 | 13.5 | 3.19 | 3.31 | 1.76 | 2.62 | 16.4 |  |  | 1.86 | 1.83 | 4.13 | 2.91 | 1.43 | 3.36 | 1.68 |
| Cn1cc2ccccc2c1-c1nc(F)nc(Nc2ccc(N)cc2)n1 | 41.9 | 55.6 | 32.7 | 37.6 | 27.3 | 60.4 | 39.2 |  |  |  |  |  |  |  |  |  |  |  |  |  |
| OCCCCCNc1ccnc2cc(Cl)ccc12 | > 100 | > 100 | > 100 | > 100 | > 100 | > 100 | > 100 |  |  |  |  |  |  |  |  |  |  |  |  |  |
| Cc1nc(-n2nc(-c3ccccc3)cc2-c2ccccc2)sc1C(=O)/C=C/c1ccc(Cl)cc1 | 25.6 | 43 | 42.1 | 49.1 |  | > 100 | 52.5 |  |  |  |  |  |  |  |  |  |  |  |  |  |
| O=c1c(-c2nc3ccccc3[nH]2)cc2ccccc2n1Cc1cn(Cc2ccccc2Cl)nn1 | 7.72 | 4.93 | 6.99 | 12.6 | 9.33 | 20.2 | 3.65 | 2.5 | 1.85 | 2.3 | 3.18 | 2.85 | 9.88 | 2.65 |  |  | 2.74 | 1.62 | 3.79 | 1.71 |
